How the values were obtained:
[1] = Stanford Sleepiness Scale (SSS) and MOAA/S; assay type: in vivo, human
Text: Part 1 Exploratory Objectives: To characterize the pharmacodynamic (PD) effects, and the PK/PD relationship, of Compound 1 on select clinical outcome assessments (COAs) of central nervous system effects following ascending single oral doses of Compound 1 (e.g., Stanford Sleepiness Scale (SSS), Modified Observer's Assessment of Alertness/Sedation Scale (MOAA/S), Sleep Quality Scale (SQS)). Part 1 Exploratory Endpoints: Changes from Baseline in SSS, MOAA/S, and/or SQS.
Part 3 Exploratory Objective: to characterize the PD effects, and the PK/PD relationships of Compound 1 on select effects following multiple oral doses of Compound 1. Part 3 Exploratory Endpoints: changes from baseline in qEEG, SSS, MOAA/S, the SQS, Cogstate, Body Sway, and video-oculography (VOG) assessment.
Participants were assessed using metrics as outlined below. The SSS is a one item self-report questionnaire that measures and quantifies progressive steps in the level of sleepiness throughout the day. Subjects select one of seven statements that best represents their level of perceived sleepiness at a given timepoint, as depicted in Table 7.
The MOAA/S is a clinical outcome assessment that measures a subject's level of alertness/sedation as determined by a rater; in its modified form, it uses only the responsiveness component of the original Observer's Assessment of Alertness/Sedation Scale. Responsiveness, as a measure of sedation, was assessed and scored on a scale of 0 to 5 as outlined in Table 8.

[2] = Sleep Quality Scale (SQS); assay type: in vivo, human; details: all cohorts
Method: The scale was administered in the morning, and subjects are asked to rate their sleep quality of the past 7 days, ranging from terrible (score of 0), poor (scores of 1-3), fair (scores of 4-6), good (scores of 7-9), and excellent (score of 10).

[3] = Body sway (posturography); assay type: in vivo, human; details: MAD
Method: Body Sway is assessed as a measure of a subject's slight postural movements in order to retain balance either statically in a neutral position or dynamically while in motion. Body Sway is typically measured by total displacement of the center of body mass relative to the base of support over time. Posturography is an objective, sensitive, reliable, and non-invasive method designed to assess the effects of drugs and alcohol on body sway and vigilance. Body sway is recorded using a computerized force-platform. Using specific positioners, bare feet subjects are asked to stand still and motionless, looking at a cue placed in front of them. Measurement of body sway (one minute with eyes open and one minute with eyes closed) is recorded as recommended by the International Society of Postuography. The length and area of the postural oscillations are then calculated.

[4] = Quantitative electroencephalogram (qEEG); assay type: in vivo, human
Text: Quantitative Electroencephalogram (qEEG or EEG) has gained prominence as a useful biomarker in human drug studies as it is continuous, objective, repeatable, sensitive, reproducible, non-invasive and highly translatable from nonclinical data. EEG serves as biomarker in this protocol and provides PD outcomes for PK-PD modeling, thus enabling a more thorough understanding of the pharmacological effects of Compound 1. In addition, EEG can provide useful safety information regarding detection of epileptiform activity and any pro-convulsive effects of the study drug. Data outputs included spectral analysis and flat brain mapping, among others.
EEG was collected at multiple time points before and after dosing on Day 1 and Day 7 of the MAD portion of the study except for Cohort 8. For a given recording, the subject was fitted with a cap containing the electrodes. For each session, recordings were collected for approximately 15 minutes while subjects are sitting quietly, and include portions with eyes open and eyes closed.
The qEEG is a quantitative measurement of brain oscillations considering different frequency levels. Resting-state brain activity was recorded in 2 conditions (eyes closed and eyes open). For each electrode, a spectral analysis of the EEG signal was carried out to derive absolute and relative powers in standard frequency bands. […]

[5] = TSST study safety and tolerability (Example 2); assay type: in vivo, human
Method: A double-blind, placebo-controlled study was performed in 80 healthy participants to determine the effects of a single dose of Compound 1 in a validated and standardized behavioral challenge, the Trier Social Stress Test (TSST). The TSST is a reliable behavioral model used to examine the neurobiological response to acute stress in humans, whereby an acute stress (and associated acute stress response) is induced under experimentally controlled conditions. The TSST induces stress through public speaking. It incorporates social evaluation and unpredictability, by obliging the person to speak in front of an unresponsive audience and is further followed by a surprise mental arithmetic test. The TSST combines elements of a social-evaluative threat and uncontrollability to produce a consistent and robust physiological and psychological stress response in humans. On the day of the study, the participant was tasked with a speech prompt, for which they had 3 minutes to prepare. The participant was then required to present the speech for 5 minutes to a panel while under the pretense of being recorded. Following the speech, participants were given an unexpected mental arithmetic task. The TSST is more fully described in Allen A et al., Neurobiol. Stress (2017), February; 6:113-126.
The study included a validation cohort and a randomized cohort. The validation cohort (n=10) was given placebo for the purposes of validating the TSST and study endpoints. The randomized cohort […] were randomized and stratified by sex to placebo or 375 mg of Compound 1 in a 1:1 ratio. The cohorts are described in Table 14. An overview of the TSST study design is also depicted in FIG. 4C.
The objective of the study was to evaluate the efficacy of Compound 1 vs. placebo in blunting the response to endpoints measured during and after the TSST procedure. The primary efficacy endpoint was the change from baseline (before TSST procedure) to the peak (maximum change) in salivary cortisol levels as measured before, during, and after the TSST procedure. The primary outcome for determining this was salivary cortisol levels. The key secondary outcomes were be the Numerical Rating Scale (NRS) for stress, anxiety, fear, embarrassment, and excitement. Additional secondary outcomes were the State Trait Anxiety Index (STAI), and blood pressure. Safety and tolerability (i.e., incidence, severity, and duration of treatment-emergent adverse events (TEAEs), serious adverse events (SAEs), and incidence of other clinically relevant signs) were also monitored. Prior to the TSST, a post-dose sample was collected for pharmacokinetic analysis.

[6] = Food effect study, PK (Example 1 Part 2)

CCCCCCCC(=O)OCC(COC(=O)CCCCCCC)OC(=O)CC(C)CC(=O)OCOC(=O)O[C@@H]1CC[C@@]2(C)[C@@H](CC[C@@H]3[C@@H]2CC[C@]2(C)[C@@H](C(C)=O)CC[C@@H]32)C1 (some centres unmarked) [Compound 1]
change from baseline in SSS and MOAA/S ([1]; Cohort 6 (Part 3), 500 mg, compared to lower doses): greater magnitude of effect from baseline
change from baseline in SSS and MOAA/S score ([1]; Cohorts 1, 2, 2b (Part 1), single doses): dose-dependent increase from baseline in the Stanford Sleepiness Scale (SSS) and a decrease from baseline in the MOAA/S score
change from baseline in SSS and MOAA/S ([1]; Cohorts 4, 5, 7, 8 (Part 3), 250 mg and 375 mg, early days of dosing): low magnitude of change from baseline
time of maximum changes in SSS and MOAA/S ([1]; Part 1): 3-5 hours post-dose
time of return to baseline levels of SSS and MOAA/S ([1]; Part 1, all treatment groups): ≤ 12 hours post-dose
difference in mean change from baseline between fed (HF or LF) and fasted states ([1]; cohort 3, 140 mg): no apparent difference
sleep quality as measured by SQS [2]: no meaningful improvements or worsening
effects on body sway ([3]; day 1): Slight effects
effects on body sway ([3]; day 7): absent
qEEG power for the β-band (β1, β2, β3) ([4]; cohorts 4 (250 mg), 5 (375 mg), 6 (500 mg)): dose-dependent increase in power
time of maximum qEEG effects following administration ([4]; day 1 and day 7): approximately 4 hours
tolerability in the TSST study ([5]; single 375 mg dose): well tolerated
TEAE dizziness ([5]; single 375 mg, placebo 3%): 20%
TEAE headache ([5]; single 375 mg, placebo 7.7%): 7.3%
TEAE somnolence ([5]; single 375 mg, placebo 13%): 29%
maximal concentrations and exposure values, combined allopregnanolone compared to allopregnanolone ([6]; 140 mg food effect study): approximately 15 times higher
increase of AUC0-t, AUC0-inf and Cmax in fed (LF) group compared to fasted and fed (HF) groups ([6]; allopregnanolone and combined allopregnanolone, 140 mg): 1.3 to 1.5 fold

— patent US20260284079A1, “LIPID PRODRUGS OF ALLOPR[…] USES THEREOF” (Seaport Therapeutics, Inc., priority 2023, published 2026)
